Laboratory results taken from patent publication US20250034115A1, “CRYSTALLINE FORMS OF C-C CHEMOKINE RECEPTOR TYPE 4 ANTAGONIST AND USES THEREOF” (RAPT THERAPEUTICS, INC., priority 2023, published 2025).

Assay: Salt screen, comments on water content / hydration versus humidity
Assay type: physicochemical
Protocol: Experiments to form salts were performed and evaluated using 45 different acids and bases and 15 different solvents, either alone or in some combination, which are listed in Table 1 below, and notable results of those experiments are presented in Table 2 below. L-arginine Saccharin Methyl isobutyl ketone

SMILES | level of hydration over humidity range (Additional Comments) (0.5 equiv, polymorph formed at higher (>70° C.) temperature compared with polymorph formed at ambient temp) | hygroscopicity (Additional Comments) (1.0 equiv, water, highly variable water content based on humidity)
O=C(O)[C@H](O)[C@@H](O)C(=O)O [L-Tartaric Acid] | temperature had a more stable level | –
Cc1nc(N2CC([C@H]3CCCN([C@H]4C[C@](C)(C(=O)[O-])C4)C3)C2)nc(N[C@H](C)c2ccc(Cl)cc2Cl)c1Cl.[Na+] [NaOH, (1R,3r)-3-((R)-3-(1-(5-chloro-4-(((R)-1-(2,4-dichlorophenyl)ethyl)amino)-6-methylpyrimidin-2-yl)azetidin-3-yl)piperidin-1-yl)-1-methylcyclobutane-1-carboxylic acid, sodium salt] | – | Highly hydroscopic (highly variable
